Assay results taken from patent US11253516B2, “N2,N4-diphenylpyrimidine-2,4-diamine derivative, method for preparing same, and pharmaceutical composition containing same as active ingredient for prevention or treatment of cancer” (Korea Research Institute of Chemical Technology, priority 2017, dated 2022).
Like-named read-outs stand apart in the source and are kept apart here.

Columns and labels:
EGFR wt. = EGFR wt. (Homo sapiens (Human), UniProt P00533); test: HTRF enzyme assay, wild-type EGFR; assay type: biochemical; conditions: recombinant enzyme
EGFR wt., sequence (P00533 25-1210): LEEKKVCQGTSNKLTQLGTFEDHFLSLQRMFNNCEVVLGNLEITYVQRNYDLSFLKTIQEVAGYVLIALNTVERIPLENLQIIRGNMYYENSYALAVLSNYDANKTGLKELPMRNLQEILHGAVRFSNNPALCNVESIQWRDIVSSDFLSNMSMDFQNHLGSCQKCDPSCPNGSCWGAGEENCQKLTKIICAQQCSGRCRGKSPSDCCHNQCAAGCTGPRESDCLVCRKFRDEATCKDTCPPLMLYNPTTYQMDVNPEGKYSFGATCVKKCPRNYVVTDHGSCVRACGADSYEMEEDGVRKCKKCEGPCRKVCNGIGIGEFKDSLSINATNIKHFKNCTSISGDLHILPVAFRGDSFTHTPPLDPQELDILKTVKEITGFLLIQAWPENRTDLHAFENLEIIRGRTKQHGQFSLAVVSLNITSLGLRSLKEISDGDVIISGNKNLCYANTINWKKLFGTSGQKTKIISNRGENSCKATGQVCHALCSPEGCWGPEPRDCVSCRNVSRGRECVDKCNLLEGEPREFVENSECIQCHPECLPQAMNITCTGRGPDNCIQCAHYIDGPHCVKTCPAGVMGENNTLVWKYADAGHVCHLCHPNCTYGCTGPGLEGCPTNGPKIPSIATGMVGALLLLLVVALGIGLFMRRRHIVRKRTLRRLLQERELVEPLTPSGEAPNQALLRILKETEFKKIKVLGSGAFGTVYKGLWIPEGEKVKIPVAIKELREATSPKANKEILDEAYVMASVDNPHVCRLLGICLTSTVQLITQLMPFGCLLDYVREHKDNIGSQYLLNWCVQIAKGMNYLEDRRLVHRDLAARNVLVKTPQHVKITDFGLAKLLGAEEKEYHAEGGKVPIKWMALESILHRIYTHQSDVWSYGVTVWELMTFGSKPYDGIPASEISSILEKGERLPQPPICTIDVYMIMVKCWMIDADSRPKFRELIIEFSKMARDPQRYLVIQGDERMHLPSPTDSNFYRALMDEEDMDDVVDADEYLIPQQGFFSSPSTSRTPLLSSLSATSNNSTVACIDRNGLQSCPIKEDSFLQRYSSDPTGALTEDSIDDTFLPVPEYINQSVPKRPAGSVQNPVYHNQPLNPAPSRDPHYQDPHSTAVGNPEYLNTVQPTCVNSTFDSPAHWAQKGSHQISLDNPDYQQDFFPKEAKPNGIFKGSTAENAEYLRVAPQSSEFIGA
Procedure: (§1) The measurement of an activity on wild-type and EGFR mutation enzyme of the compound of the present invention was experimented by utilizing the HTRF system sold by Cisbio, as follow.
(§2) The composition of the assay buffer used in the activity measurement was 50 mM Tris-HCl pH 7.5, 100 mM NaCl, 7.5 mM MgCl2, 3 mM KCl, 0.01% Tween 20, 0.1% BSA, 1 mM DTT. The enzymatic reaction was carried out hereto by using the peptide substrate labeled with ATP of […] concentration and biotin of […] concentration. The analysis of an EGFR activity inhibitory effect of the compound was carried out in accordance with the analysis reaction recipe below.
(§3) Component 1: […] of EGFR wild-type or mutation enzyme
(§4) Component 2: […] of compound solution
(§5) Component 3: […] of peptide labeled with ATP and biotin
(§6) The enzymatic reaction was initiated by mixing Component 1 and Component 2 first, and then, adding component 3. After the reaction for 2 hours at 37° C., […] of a measurement solution consisting of streptavidin-XL665 provided by Cisbio and anti-phosphotyrosine antibody labeled with europium was added to the enzymatic reaction solution and reacted for 1 hour at ambient temperature. […] The measurement values measured at the seven concentrations of the compound were analyzed by using the Prism program (version 5.01, Graphpad Software, Inc.), and IC50 value of the compound was calculated, which is an inhibitory ability indicator.

EGFR del19/T790M = EGFR del19/T790M (Homo sapiens (Human), UniProt P00533, DEL746-750/T790M); test: HTRF enzyme assay, EGFR del19/T790M; assay type: biochemical; conditions: recombinant enzyme
EGFR del19/T790M, sequence (P00533 other isoform, or with tags, fused parts or gaps T790M/del 1-668/del 746-750 limits assumed): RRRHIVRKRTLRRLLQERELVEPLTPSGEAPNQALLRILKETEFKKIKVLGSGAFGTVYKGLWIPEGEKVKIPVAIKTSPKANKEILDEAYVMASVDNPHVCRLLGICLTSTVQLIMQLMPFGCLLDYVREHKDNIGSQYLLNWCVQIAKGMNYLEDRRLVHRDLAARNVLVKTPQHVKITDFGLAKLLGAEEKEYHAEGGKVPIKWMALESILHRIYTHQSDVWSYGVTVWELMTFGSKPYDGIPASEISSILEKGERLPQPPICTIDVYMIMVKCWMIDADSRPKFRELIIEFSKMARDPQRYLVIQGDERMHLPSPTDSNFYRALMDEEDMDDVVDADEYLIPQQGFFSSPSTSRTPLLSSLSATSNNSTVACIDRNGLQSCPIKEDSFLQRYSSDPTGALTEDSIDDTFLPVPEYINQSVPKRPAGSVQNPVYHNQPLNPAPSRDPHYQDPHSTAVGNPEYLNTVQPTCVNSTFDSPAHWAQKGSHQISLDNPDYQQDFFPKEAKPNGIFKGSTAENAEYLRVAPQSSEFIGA
Procedure: as §1, §2, §3, §4, §5, §6

[1] = tested on: Ba/F3 EGFR del19/T790M/C797S cell line; test: CellTiter-Glo cell viability, Ba/F3 EGFR del19/T790M/C797S; assay type: cell-based; conditions: read-out: Ba/F3 EGFR del19/T790M/C797S IC50
Procedure: The measurement of an activity on wild-type and mutation Ba/F3 EGFR cell line of the compound of the present invention was experimented by utilizing the CellTiter-Glo system sold by Promega, as follow. The CellTiter-Glo assay is a method for measuring the ATP present in cells in cell culture conditions to determine the cell viability.
The analysis of an EGFR inhibitory ability effect of the compound was carried out in accordance with the analysis reaction recipe below.
After the reaction of 72 hours, the plate treated with the compound was allowed to stand for 30 minutes at ambient temperature, and then, was further treated with 100 μl of the reagent, and was shaked for 10 minutes at ambient temperature.

FLT1 = FLT1 (Homo sapiens (Human), UniProt P17948); test: KINOMEscan binding, FLT1
FLT1, sequence (P17948 27-1338): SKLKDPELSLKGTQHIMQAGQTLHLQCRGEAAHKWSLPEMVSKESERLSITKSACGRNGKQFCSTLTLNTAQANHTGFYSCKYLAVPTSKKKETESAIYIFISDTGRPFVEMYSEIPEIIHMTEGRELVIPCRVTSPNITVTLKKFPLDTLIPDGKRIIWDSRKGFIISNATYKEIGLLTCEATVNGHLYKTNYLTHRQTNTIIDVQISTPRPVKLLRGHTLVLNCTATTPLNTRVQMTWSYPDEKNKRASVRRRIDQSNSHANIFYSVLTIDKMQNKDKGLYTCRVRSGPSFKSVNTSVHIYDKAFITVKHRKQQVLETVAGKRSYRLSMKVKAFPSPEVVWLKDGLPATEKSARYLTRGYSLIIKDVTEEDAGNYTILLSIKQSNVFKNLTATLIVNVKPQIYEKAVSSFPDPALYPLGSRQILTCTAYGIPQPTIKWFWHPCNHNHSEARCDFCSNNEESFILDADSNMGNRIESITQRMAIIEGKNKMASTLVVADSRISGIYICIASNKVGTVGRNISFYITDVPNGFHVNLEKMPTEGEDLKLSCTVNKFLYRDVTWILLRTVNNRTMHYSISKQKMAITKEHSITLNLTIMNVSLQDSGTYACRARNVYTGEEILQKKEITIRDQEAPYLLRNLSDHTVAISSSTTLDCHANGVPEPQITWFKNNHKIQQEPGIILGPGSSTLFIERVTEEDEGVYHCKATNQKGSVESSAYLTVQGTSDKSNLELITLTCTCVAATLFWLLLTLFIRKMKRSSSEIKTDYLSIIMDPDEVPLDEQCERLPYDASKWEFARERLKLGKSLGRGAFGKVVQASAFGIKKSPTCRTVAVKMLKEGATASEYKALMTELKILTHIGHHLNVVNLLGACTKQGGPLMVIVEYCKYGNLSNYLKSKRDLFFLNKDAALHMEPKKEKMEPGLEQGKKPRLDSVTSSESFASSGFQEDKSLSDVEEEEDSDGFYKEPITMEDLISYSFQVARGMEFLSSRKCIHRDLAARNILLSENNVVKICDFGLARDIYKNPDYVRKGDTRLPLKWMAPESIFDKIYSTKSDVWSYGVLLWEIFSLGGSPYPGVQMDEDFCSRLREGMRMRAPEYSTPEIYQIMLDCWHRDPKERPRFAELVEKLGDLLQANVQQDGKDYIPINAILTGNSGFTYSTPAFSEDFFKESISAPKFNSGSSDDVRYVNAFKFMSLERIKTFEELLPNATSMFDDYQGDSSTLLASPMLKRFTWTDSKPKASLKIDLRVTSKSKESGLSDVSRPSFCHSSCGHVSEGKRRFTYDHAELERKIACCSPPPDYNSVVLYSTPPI
Procedure: (§7) The inhibitory activity on FLT kinase, such as wild-type FLT1, FLT3, FLT4, and FLT3 mutation forms, FLT3(D835H), FLT3(D835V), FLT3(D835Y), FLT3(ITD), FLT3(ITD,D835V), FLT3(ITD,F691L), FLT3(K663Q), FLT3(N841I), FLT3(R834Q) was measured.
(§8) FLT3 kinase inhibition was carried out by KINOMEscan method (DiscoverX Inc.). KINOMEscan method consists of the following processes. T7 bacteriophage labeled with FLT kinase was cultured by the infection to E. coli derived from BL21. After the infection of E. coli in the condition of 0.4 of MOI (multiplicity of infection), it was cultured for 90 to 150 minutes at 32° C. to lyse E. coli. The cell debris was removed by centrifugation and filtration, and the kinase protein present in the supernatant was secured. Additionally, the kinase protein was labeled with DNA for the qPCR measurement. The magnetic beads labeled with streptavidin were treated with the standard compound labeled with biotin and reacted for 30 minutes. The resulting beads were used as affinity beads for the measurement of a kinase activity. The binding reaction was initiated with mixing a kinase protein, the affinity beads bound with a ligand, and the compound. In this case, the used buffer solution was 20% SeaBlock, 0.17×PBS, 0.05% Tween 20, 6 mM DTT. […] The affinity of the compound to be tested was indirectly measured by Quantifying the eluted kinase by […].

FLT3 = FLT3 (Homo sapiens (Human), UniProt P36888); test: KINOMEscan binding, FLT3; conditions: for inhibitory ability on FLT 3 kinase in comparison with FLT 1 and FLT 4: selectivity in words
Procedure: as §7
FLT3 kinase inhibition was carried out by KINOMEscan method (DiscoverX Inc.). KINOMEscan method consists of the following processes. T7 bacteriophage labeled with FLT kinase was cultured by the infection to E. coli derived from BL21. After the infection of E. coli in the condition of 0.4 of MOI (multiplicity of infection), it was cultured for 90 to 150 minutes at 32° C. to lyse E. coli. The cell debris was removed by centrifugation and filtration, and the kinase protein present in the supernatant was secured. Additionally, the kinase protein was labeled with DNA for the qPCR measurement. The magnetic beads labeled with streptavidin were treated with the standard compound labeled with biotin and reacted for 30 minutes. The resulting beads were used as affinity beads for the measurement of a kinase activity. The binding reaction was initiated with mixing a kinase protein, the affinity beads bound with a ligand, and the compound. In this case, the used buffer solution was 20% SeaBlock, 0.17×PBS, 0.05% Tween 20, 6 mM DTT. All the reactions were carried out in volume of 20 ul at a 384 well plate. After the reaction for 1 hour at ambient temperature, the beads were washed with the solution consisting of 1×PBS, 0.05 Tween 20. Finally, the kinase bound with the beads was eluted by using 1×PBS, 0.05 Tween 20, 0.5 uM standard compound unlabeled with biotin. The affinity of the compound to be tested was indirectly measured by Quantifying the eluted kinase by […].

FLT3(D835Y) = FLT3(D835Y) (Homo sapiens (Human), UniProt P36888, D835Y); test: KINOMEscan binding, FLT3(D835Y)
Procedure: as §7, §8

FLT3(ITD) = FLT3(ITD) (Homo sapiens, UniProt P36888, ITD); test: KINOMEscan binding, FLT3(ITD)
Procedure: as §7, §8

FLT3(ITD, F691L) = FLT3(ITD, F691L) (Homo sapiens, UniProt P36888, F691L/ITD); test: KINOMEscan binding, FLT3(ITD, F691L)
Procedure: as §7, §8

FLT3(N841I) = FLT3(N841I) (Homo sapiens (Human), UniProt P36888, N841I); test: KINOMEscan binding, FLT3(N841I)
Procedure: as §7, §8

FLT4 = FLT4 (Homo sapiens (Human), UniProt P35916); test: KINOMEscan binding, FLT4
FLT4, sequence (P35916 25-1363): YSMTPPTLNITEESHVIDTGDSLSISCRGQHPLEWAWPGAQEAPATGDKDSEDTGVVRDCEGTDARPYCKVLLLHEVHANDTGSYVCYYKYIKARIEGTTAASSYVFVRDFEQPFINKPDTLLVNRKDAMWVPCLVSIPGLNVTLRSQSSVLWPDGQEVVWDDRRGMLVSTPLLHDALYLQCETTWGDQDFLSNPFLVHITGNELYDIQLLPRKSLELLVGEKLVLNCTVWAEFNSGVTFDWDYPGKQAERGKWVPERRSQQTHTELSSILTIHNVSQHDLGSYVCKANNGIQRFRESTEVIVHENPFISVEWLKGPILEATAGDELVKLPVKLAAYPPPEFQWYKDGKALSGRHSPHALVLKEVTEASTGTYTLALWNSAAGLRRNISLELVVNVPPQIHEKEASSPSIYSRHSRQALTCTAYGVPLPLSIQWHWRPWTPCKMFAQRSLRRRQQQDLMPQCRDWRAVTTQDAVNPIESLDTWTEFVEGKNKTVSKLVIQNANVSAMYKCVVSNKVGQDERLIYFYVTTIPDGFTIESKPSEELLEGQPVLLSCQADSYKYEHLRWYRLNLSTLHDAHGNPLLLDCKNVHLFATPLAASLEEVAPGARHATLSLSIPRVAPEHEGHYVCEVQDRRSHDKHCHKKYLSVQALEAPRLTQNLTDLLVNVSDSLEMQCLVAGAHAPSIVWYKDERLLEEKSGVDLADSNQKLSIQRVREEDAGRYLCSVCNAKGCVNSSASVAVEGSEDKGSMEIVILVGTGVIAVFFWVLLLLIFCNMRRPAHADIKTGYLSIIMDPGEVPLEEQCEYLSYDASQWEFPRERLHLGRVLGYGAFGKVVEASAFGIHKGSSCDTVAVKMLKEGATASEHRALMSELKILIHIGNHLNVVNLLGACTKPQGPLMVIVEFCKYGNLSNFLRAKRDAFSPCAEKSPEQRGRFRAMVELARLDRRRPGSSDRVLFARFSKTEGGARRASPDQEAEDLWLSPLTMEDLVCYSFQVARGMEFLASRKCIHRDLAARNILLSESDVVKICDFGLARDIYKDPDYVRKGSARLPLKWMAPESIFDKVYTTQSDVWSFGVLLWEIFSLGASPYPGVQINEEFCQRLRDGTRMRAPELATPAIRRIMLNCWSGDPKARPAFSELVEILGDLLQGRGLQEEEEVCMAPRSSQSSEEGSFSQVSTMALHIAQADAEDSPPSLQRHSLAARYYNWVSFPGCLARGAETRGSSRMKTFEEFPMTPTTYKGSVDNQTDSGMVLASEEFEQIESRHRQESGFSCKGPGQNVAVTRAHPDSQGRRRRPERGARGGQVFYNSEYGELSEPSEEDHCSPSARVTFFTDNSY
Procedure: as §7, §8

[2] = tested on: pERK, pAKT, pS6 (EGFR sub-signal) in Ba/F3 Del19/T790M/C797S cell line; test: EGFR sub-signal activity (pERK, pAKT, pS6) alone or in combination with cetuximab; assay type: cell-based; conditions: for activity in pERK, pAKT, pS6 (EGFR sub-signal) when administered alone: 30, 100, 300, 1000 nM alone; for sub-signal activity when administered in combination with cetuximab: 30, 100, 300, 1000 nM plus 10 μg cetuximab; for sub-signal activity compared with brigatinib in combination with cetuximab: vs brigatinib plus cetuximab
Procedure: In addition, when administering each of brigatinib, the compounds of Examples 10 and 11 of the present invention in 30, 100, 300, 1000 nM alone or in combination with 10 μg of cetuximab, the sub-signal activity on a/F3 Del19/T790M/C797S cell line was evaluated and the results are shown in FIGS. 5 to 7.

COc1cc(N2CCC(N3CCN(C)CC3)CC2)ccc1Nc1ncc(Cl)c(Nc2ccccc2NS(C)(=O)=O)n1 [Example 10, N-(2-((5-chloro-2-((2-methoxy-4-(4-(4-methylpiperazin-1-yl)piperidin-1-yl)phenyl)amino)pyrimidin-4-yl)amino)phenyl)methanesulfonamide]
IC50 (EGFR wt.): 430 nM
IC50 (EGFR del19/T790M): 4 nM
IC50 ([1]; 72 h): 63 nM
Kd (FLT1): > 10000 nM
Kd (FLT3): 3.7 nM
inhibitory ability on FLT 3 kinase in comparison with FLT 1 and FLT 4 (FLT3): selectively superior inhibitory ability
Kd (FLT3(D835Y)): 4.2 nM
Kd (FLT3(ITD)): 18 nM
Kd (FLT3(ITD, F691L)): 1.1 nM
Kd (FLT3(N841I)): 6.5 nM
Kd (FLT4): 200 nM
activity in pERK, pAKT, pS6 (EGFR sub-signal) when administered alone [2]: concentration-dependent activity
sub-signal activity when administered in combination with cetuximab [2]: superior activity
sub-signal activity compared with brigatinib in combination with cetuximab [2]: superior activity

COc1cc(N2CCC(N(C)C)CC2)ccc1Nc1ncc(Cl)c(Nc2ccccc2NS(C)(=O)=O)n1 [Example 11, N-(2-((5-chloro-2-((4-(4-(dimethylamino)piperidin-1-yl)-2-methoxyphenyl)amino)pyrimidin-4-yl)amino)phenyl)methanesulfonamide]
IC50 (EGFR wt.): 280 nM
IC50 (EGFR del19/T790M): 3.1 nM
IC50 ([1]; CellTiter-Glo, 72 hours): 38 nM
Kd (FLT1): 910 nM
Kd (FLT3): 1.2 nM
inhibitory ability on FLT 3 kinase in comparison with FLT 1 and FLT 4 (FLT3): selectively superior inhibitory ability
Kd (FLT3(D835Y)): 1.5 nM
Kd (FLT3(ITD)): 4.2 nM
Kd (FLT3(ITD, F691L)): 0.27 nM
Kd (FLT3(N841I)): 3.8 nM
Kd (FLT4): 81 nM
activity in pERK, pAKT, pS6 (EGFR sub-signal) when administered alone [2]: concentration-dependent activity
sub-signal activity when administered in combination with cetuximab [2]: superior activity
sub-signal activity compared with brigatinib in combination with cetuximab [2]: superior activity
